The values that follow come from PMC6993587, “Detection of EXP1-Specific CD4+ T Cell Responses Directed Against a Broad Range of Epitopes Including Two Promiscuous MHC Class II Binders During Acute Plasmodium falciparum Malaria” (Frontiers in Immunology, 2020).

Ends that are not written are not given here.

What all share (assay): In vitro HLA binding assay with purified HLA-DR molecules
Assay [1] has as its target HLA-DR DRB4*01:01 (Homo sapiens, UniProt P01903+P13762, G164S). As to conditions: purified HLA-DR molecule; high affinity binding = IC50 <1,000 nM. Here is the method:
(§1) In vitro binding assays with 14 of the peptides that elicited a response were performed using purified HLA-DR molecules, as previously described (Table 3) ([37]). MHC class II in silico binding predictions were defined, using the IEDB analysis resource ([38]–[40]), combining predictions from the ANN ([41], [42]) and SMM ([43]) algorithms (Supplementary Table 2A).
(§2) To test this hypothesis, we measured the in vitro capacity of the most frequently recognized EXP1 peptides to bind to a panel of 17 of the most prevalent human HLA-DR molecules, since the majority of HLA class II restricted CD4+ T cell responses are presented by these molecules ([49], [50]). Peptides with an IC50 of 1,000 nM or lower, a threshold previously found associated with the vast majority of HLA class II-restricted T cell epitopes, were considered binders to the respective DR molecule ([51]–[53]). […] These include EXP1-P14 which bound to five, EXP1-P15 to 13, EXP1-P16 to 10 and EXP1-P17 to nine different HLA molecules (Table 3).

Assay [2] concerns the target HLA-DR DRB1*01:01 (Homo sapiens, UniProt P01903+P01911, A100R/D57E/F55L/F60I/F76Y/I96L/L162R/M171V/P40L/Q125E/R42F/V115G/Y59C). As to conditions: purified HLA-DR molecule; high affinity binding = IC50 <1,000 nM. The protocol: as §1, §2
For assay [3], the target named is HLA-DR DRB1*04:05 (Homo sapiens, UniProt P01903+P01911, A100R/A169T/D86S/F76Y/I96L/K127E/L162R/M171V/N62H/P40V/Q125Y/R42H/S133A/S149N/S66Y/V115G/V209L/W38E). As to conditions: purified HLA-DR molecule; high affinity binding = IC50 <1,000 nM. Here is the method: as §1, §2
Assay [4] addresses HLA-DR DRB1*13:01 (Homo sapiens, UniProt P01903+P01911, A100E/A169T/K41T/L162R/M171V/P40S/Q125H/Q178H/Q39Y/Q99D/R42S/S66N/T262R/W38E/Y61H). Conditions: purified HLA-DR molecule; high affinity binding = IC50 <1,000 nM. The protocol:
as §1, §2

Assay [5] addresses HLA-DR DRB1*10:01 (Homo sapiens, UniProt P01903+P01911, A100R/A169T/D57E/F55L/F60V/F69Y/F76Y/I96L/L162R/M171V/P40V/Q260P/Q39E/Q99R/R195Q/R42F/S149N/S66Y/T210M/V115G/V67A/W38E/Y59R/Y61H). Conditions: purified HLA-DR molecule; high affinity binding = IC50 <1,000 nM. Here is the method:
as §1, §2

For assay [6], the target named is HLA-DR DRB1*04:01 (Homo sapiens, UniProt P01903+P01911, A100K/A169T/F76Y/I96L/K127E/L162R/M171V/N62H/P40V/Q125Y/R42H/S133A/S149N/S66Y/V115G/V209L/W38E). Conditions: purified HLA-DR molecule; high affinity binding = IC50 <1,000 nM. The protocol:
as §1, §2

Assay [7] deals with HLA-DR DRB1*11:01 (Homo sapiens, UniProt P01903+P01911, A100R/A169T/A87E/I96F/K41T/L162R/M171V/P40S/Q125H/Q178H/Q39Y/Q99D/R42S/S66Y/T262R/V115G/W38E). Conditions: purified HLA-DR molecule; high affinity binding = IC50 <1,000 nM. Here is the method:
as §1, §2

Assay [8] has as its target HLA-DR DRB1*08:02 (Homo sapiens, UniProt P01903+P01911, A100R/A103L/A169T/F76Y/H45Y/I96F/K41T/L162R/M171V/P40S/Q125H/Q178H/Q39Y/Q99D/R218S/R42G/S66Y/V115G/W38E). Conditions: purified HLA-DR molecule; high affinity binding = IC50 <1,000 nM. The protocol:
as §1, §2

Assay [9] has as its target HLA-DR DRB1*07:01 (Homo sapiens, UniProt P01903+P01911, A100R/A102G/A103Q/D57E/D86V/E43K/F76Y/K127E/L162R/M171V/P40G/Q125H/Q99D/R33Q/R42Y/R54Q/S133A/S66F/T210M/V115G/Y107V/Y59L/Y89S). As to conditions: purified HLA-DR molecule; high affinity binding = IC50 <1,000 nM. The protocol:
as §1, §2

The target in assay [10] is HLA-DR DRB5*01:01 (Homo sapiens, UniProt P01903+Q30154). Conditions: purified HLA-DR molecule; high affinity binding = IC50 <1,000 nM. The protocol: as §1, §2
In assay [11] the target is HLA-DR DRB1*04:04 (Homo sapiens, UniProt P01903+P01911, A100R/A169T/F76Y/I96L/K127E/L162R/M171V/N62H/P40V/Q125Y/R42H/S133A/S149N/S66Y/V209L/W38E). Conditions: purified HLA-DR molecule; high affinity binding = IC50 <1,000 nM. Here is the method: as §1, §2
The target of assay [12] is HLA-DR DRB1*15:01 (Homo sapiens, UniProt P01903+P01911). As to conditions: purified HLA-DR molecule; high affinity binding = IC50 <1,000 nM. The protocol: as §1, §2
In assay [13] the target is HLA-DR DRB1*09:01 (Homo sapiens, UniProt P01903+P01911, A100R/A103E/D57H/D86V/F55Y/F60I/F76Y/I96F/K127E/L162R/M171V/P40D/Q125H/Q99R/R33Q/R42F/S133A/S66N/T210M/V115G/W38K/Y107V/Y59G/Y89S).
Assay [14] addresses HLA-DR DRB3*01:01 (Homo sapiens, UniProt P01903+P79483). As to conditions: purified HLA-DR molecule; high affinity binding = IC50 <1,000 nM. The protocol:
as §1, §2

For assay [15], the target named is HLA-DR DRB1*03:01 (Homo sapiens, UniProt P01903+P01911, A100K/A102G/A103R/A169T/F55Y/I96L/K41T/L162R/M171V/P40S/Q125H/Q178H/Q39Y/R42S/S66N/T106N/T262R/W38E/Y61H). Conditions: purified HLA-DR molecule; high affinity binding = IC50 <1,000 nM. The protocol: as §1, §2
HLA-DR DRB1*03:01, sequence (P01903 26-254, other chains not shown): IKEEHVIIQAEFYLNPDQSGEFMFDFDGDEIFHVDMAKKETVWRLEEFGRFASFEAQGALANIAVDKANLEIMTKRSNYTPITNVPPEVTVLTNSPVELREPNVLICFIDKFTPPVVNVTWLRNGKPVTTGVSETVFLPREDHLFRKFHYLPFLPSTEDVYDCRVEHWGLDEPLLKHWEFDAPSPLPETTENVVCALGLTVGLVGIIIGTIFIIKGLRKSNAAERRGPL
In assay [16] the target is HLA-DR DRB3*02:02 (Homo sapiens, UniProt P01903+P79483, A212P/D57E/F66Y/L67A/R103Q/R218S/R40L/S89Y/T80R/V86D/Y55F/Y59H). Conditions: purified HLA-DR molecule; high affinity binding = IC50 <1,000 nM. The protocol:
as §1, §2

Assay [17] addresses HLA-DR DRB1*13:02 (Homo sapiens, UniProt P01903+P01911, A100E/A169T/K41T/L162R/M171V/P40S/Q125H/Q178H/Q39Y/Q99D/R42S/S66N/T262R/V115G/W38E/Y61H). Conditions: purified HLA-DR molecule; high affinity binding = IC50 <1,000 nM. The protocol: as §1, §2

Broadly, the IC50 is the point on the concentration scale where inhibition reaches its midpoint.

HLA-DR DRB1*11:01, sequence (P01903 26-254 limits assumed, other chains not shown): as the sequence (P01903 26-254, other chains not shown) above
HLA-DR DRB3*02:02, sequence (P01903 26-254 limits assumed): as the sequence (P01903 26-254, other chains not shown) above
HLA-DR DRB3*02:02, sequence (P79483 30-266 R40L/Y55F/D57E/Y59H/F66Y/L67A/T80R/V86D/S89Y/R103Q/A212P/R218S limits assumed): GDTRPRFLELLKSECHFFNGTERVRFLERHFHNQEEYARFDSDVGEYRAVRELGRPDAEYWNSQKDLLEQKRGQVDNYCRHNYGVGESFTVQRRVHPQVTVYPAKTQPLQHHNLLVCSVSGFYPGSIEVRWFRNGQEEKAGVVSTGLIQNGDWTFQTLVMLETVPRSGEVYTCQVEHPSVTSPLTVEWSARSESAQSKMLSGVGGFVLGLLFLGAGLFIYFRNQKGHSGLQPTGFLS
HLA-DR DRB1*13:02, sequence (P01903 26-254 limits assumed, other chains not shown): as the sequence (P01903 26-254, other chains not shown) above

Take `CC[C@H](C)[C@H](NC(=O)[C@@H](NC(=O)[C@H](Cc1ccccc1)NC(=O)[C@H](Cc1ccccc1)NC(=O)[C@H](CC(C)C)NC(=O)[C@H](C)NC(=O)[C@H](CC(C)C)NC(=O)[C@H](Cc1ccccc1)NC(=O)[C@H](Cc1ccccc1)NC(=O)[C@@H](NC(=O)[C@H](CO)NC(=O)[C@H](CC(C)C)NC(=O)[C@@H](NC(=O)[C@H](CCCCN)NC(=O)[C@@H](N)CCSC)[C@@H](C)CC)C(C)C)[C@@H](C)CC)C(=O)O` [EXP1-P01]: the half-maximal inhibitory concentration (IC50) stood at 25.2 µM in [1]; 21.4 µM in assay [2]; 3.52 µM in assay [3]; 3.12 µM in assay [4]; 4.94 µM in assay [5]; 5.05 µM in assay [6]. Also, the half-maximal inhibitory concentration (IC50) worked out at 39.6 µM in assay [7]; 5.45 µM in assay [8]; 9.19 µM in assay [9]; 10.9 µM in [10]; 9.13 µM in [11]; 3.36 µM in assay [12]. The concentration for half-maximal inhibition (IC50) in assay [13] is 3.59 µM.

In the case of `CC(C)C[C@H](NC(=O)CNC(=O)[C@@H](NC(=O)CNC(=O)CNC(=O)[C@H](CC(C)C)NC(=O)[C@H](CC(C)C)NC(=O)[C@@H](NC(=O)[C@@H](N)[C@@H](C)O)C(C)C)C(C)C)C(=O)N[C@H](C(=O)N[C@@H](CC(C)C)C(=O)N[C@@H](Cc1ccc(O)cc1)C(=O)N[C@@H](CC(N)=O)C(=O)N[C@H](C(=O)N[C@@H](CCC(=O)O)C(=O)O)[C@@H](C)O)C(C)C` [EXP1-P19], the IC50 in [1] came out at 8.28 µM; in assay [2], 0.0086 µM; in [3], 4.95 µM; in [4], 7.44 µM; in [5], 34 µM; in assay [6], 2.44 µM. The IC50 turned out to be 3.95 µM in assay [9]; 1.18 µM in assay [10]; 20.1 µM in [11]; 0.219 µM in [12]; 4.45 µM in assay [13].

In the case of EPLIDVHDLISDMIK [EXP1-P10], the IC50 in [14] came to 7.96 µM; in assay [1], 0.162 µM; in assay [2], 6.02 µM; in assay [15], 6.77 µM; in assay [3] it was 31 µM; in assay [6], 27.5 µM. Besides, the values for the half-inhibitory concentration (IC50) in assay [8], in [11] and in assay [12] were 2.84 µM, 1.11 µM and 29.2 µM, respectively.

With GSGVSSKKKNKKGSG [EXP1-P07], the results for the concentration for half-maximal inhibition (IC50) in [4] and in assay [10] were 1.98 µM and 4.56 µM, respectively.

For the compound KEEELVEVNKRKSKY [EXP1-P13], the half-inhibitory concentration (IC50) in assay [1] is 17.9 µM; in assay [4] it was 1.19 µM; in assay [7], 0.142 µM; in [10] it was 1.12 µM.

Take KLATSVLAGLLGVVS [EXP1-P16]: the IC50 in assay [14] was 6.1 µM; in assay [16], 0.481 µM; in [1], 0.567 µM; in assay [2], 0.011 µM; in assay [15], 10.8 µM; in assay [3], 0.539 µM. For the same compound, the half-maximal inhibitory concentration (IC50) was 32.4 µM in assay [4]; 0.152 µM in assay [5]; 0.38 µM in assay [6]; 0.81 µM in [7]; 1.15 µM in assay [8]; 0.133 µM in assay [9]. The half-inhibitory concentration (IC50) in assay [10] turned out to be 0.244 µM; in assay [11], 0.454 µM; in assay [12], 2.27 µM; in assay [13], 1.36 µM.

Turning to LGVVSTVLLGGVGLV [EXP1-P18], the IC50 was 13.5 µM in assay [14]; 0.194 µM in assay [1]; 0.019 µM in [2]; 5.02 µM in [3]; 8.56 µM in assay [4]; 1.89 µM in [5]. Besides, the IC50 in assay [6] was 2.05 µM; in assay [7] it was 6.63 µM; in [8] it was 1.81 µM; in assay [9] it was 0.433 µM; in assay [10] it was 2.47 µM; in [11] it was 0.806 µM. Moreover, the IC50 in assay [17] came out at 3.23 µM; in [12], 0.3 µM; in [13] it was 0.491 µM.

On to NANPDADSESNGEPN [EXP1-P25], for which the IC50 in [1] was determined as 12 µM; in assay [2], 19.6 µM; in assay [3], 18.2 µM; in assay [5] it was 33.6 µM; in assay [6], 16.7 µM; in [7] it was 23.2 µM. Also, the concentration for half-maximal inhibition (IC50) turned out to be 4.01 µM in [8], 31.1 µM in assay [10], 12.5 µM in assay [11] and 1.1 µM in assay [12].

On to SKKKNKKGSGEPLID [EXP1-P08], for which the IC50 in [8] came to 30 µM.

In the case of SVFFLALFFIIFNKE [EXP1-P02], the half-maximal inhibitory concentration (IC50) in [14] came out at 10.6 µM; in assay [1] it was 17.4 µM; in assay [2] it was 11.7 µM; in [15] it was 12.3 µM; in [3], 4.25 µM; in assay [4] it was 6.46 µM. For the same compound, the IC50 in assay [5] is 3.99 µM; in assay [6] it was 4.2 µM; in assay [8] it was 2.97 µM; in [9] it was 7.99 µM; in assay [10], 6.95 µM; in assay [11] it was 2.61 µM. Also, the concentration for half-maximal inhibition (IC50) amounted to 1.55 µM in assay [12] and 0.648 µM in assay [13].

Turning to VEVNKRKSKYKLATS [EXP1-P14], the 50% inhibitory concentration (IC50) amounted to 13.9 µM in assay [14]; 5.84 µM in assay [16]; 2.35 µM in [2]; 0.083 µM in assay [3]; 5.74 µM in [4]; 0.295 µM in assay [5]. The IC50 is 0.058 µM in assay [6]; 8.3 µM in assay [9]; 0.089 µM in assay [10]; 6.1 µM in [12]; 0.077 µM in assay [13].
